Assay results published in patent US8143889B2, “Simultaneous acquisitions of spin- and stimulated-echo planar imaging” (University of Utah Research Foundation, priority 2009, dated 2012).

Legend:
Format in all cases: physicochemical
[1] = T1 of MnCl2/water phantom by saturation-recovery spin-echo; details: 3 Tesla
Experimental: (§1) MRI studies were performed on a Siemens Trio 3 Tesla MRI system (Siemens Medical Solutions, Erlangen, Germany) with Avanto gradients (45 mT/m strength and 150 T/m/s slew rate). The pulse sequence was developed based on a singleshot spin-echo EPI sequence, using the IDEA pulse sequence development environment. Realtime calculation of T1 mapping was implemented into a custom-made ICE program (Image Construction Environment). The image construction program produced two magnitude images, two phase images, and a T1 map for each slice.
A phantom was constructed with four 20 cc plastic bottles filled with 0.05, 0.1, 0.2, and 0.4 mM MnCl2/water solutions, respectively, and immersed in jello in a rectangular acrylic container with dimensions 8×8×13 cm^3. The T1 of each concentration was 1.3, 0.9, 0.55, 0.35 sec for 0.05, 0.1, 0.2, 0.4 mM, respectively. T1 of the phantom was measured using saturation-recovery spin-echo.

[2] = T1 mapping of MnCl2/water phantom by inversion-recovery spin-echo (IR-SE) imaging and 2D ss-SGSTEPI; details: 3 Tesla
Experimental: as §1
A phantom was constructed with 4 plastic bottles filled with MnCl2/water solutions with concentrations of 0.05, 0.1, 0.2, and 0.4 mM, which were surrounded by jello. T1 mapping experiment was conducted using inversion-recovery spin-echo (IR-SE) imaging and 2D ss-SGSTEPI. T1 of each concentration of MnCl2/water solution were measured as 1.5, 0.89, 0.55, 0.35 sec for […], respectively.

[3] = T1 and turbo-FLASH signal intensity on phantom with different concentrations of Gd-BOPTA
Experimental: The results are plotted in FIG. 12. […] The dosage 0.1˜0.2 mM [PBCA]/kg is the routine dosage for DCE-MRI and local concentrations may easily exceed 0.2˜0.4 mM/kg in organs with high-blood supply or at the periphery of a tumor. The signal behavior of the gradient-echo MRI varies widely with the selection of TR, TE, and flipangle, and for T1. Although a set of these imaging parameters may be linear for a small range of PBCA concentrations and specific T1, it will not be linear for other T1 values. […] Thus, direct conversion of SI to the concentration is subject to large error, which will be propagated into the subsequent kinetic calculation. In contrast, the realtime T1 mapping provided by embodiments of the invention described above is linearly related to the PBCA concentration. Thus, the realtime T1 mapping provides accurate realtime estimation of the PBCA concentration resulting in improvement of the accuracy of drug-delivery or tumor evaluation.

Row | T1 ([1]; 0.05 mM MnCl2/water solution) [s] | T1 ([1]; 0.1 mM MnCl2/water solution) [s] | T1 ([1]; 0.2 mM MnCl2/water solution) [s] | T1 ([1]; 0.4 mM MnCl2/water solution) [s] | T1 ([2]; 0.05 mM MnCl2/water solution) [s] | T1 ([2]; 0.1 mM MnCl2/water solution) [s] | T1 ([2]; 0.2 mM MnCl2/water solution) [s] | T1 ([2]; 0.5 mM MnCl2/water solution) [s] | T1 relaxation rate (1/T1) of the water proton vs. concentration ([3]; FIG. 12(b)) | signal intensities of turboFLASH and spin-EPI vs. concentration ([3]; TR/TE=7.2/2.7 ms, flipangle 30°, FIG. 12(a)) | SMILES
1 | 1.3 | 0.9 | 0.55 | 0.35 | 1.5 | 0.89 | 0.55 | 0.35 | – | – | [Cl][Mn][Cl] [MnCl2]
2 | – | – | – | – | – | – | – | – | very linear with the concentration | non-linear even at low concentration | CNC[C@H](O)[C@@H](O)[C@H](O)[C@H](O)CO.CNC[C@H](O)[C@@H](O)[C@H](O)[C@H](O)CO.O=C([O-])CN(CCN(CC(=O)[O-])CC(=O)O)CCN(CC(=O)O)C(COCc1ccccc1)C(=O)[O-].[Gd+3] (stereo not shown) [Gd-BOPTA, Gadobenate dimeglumine]
